From patent US9765063B2, “Amido compounds as RORγt modulators and uses thereof” (New York University, priority 2011, dated 2017)
Entries after “also recorded” stand apart in the source; their conditions may differ.

Columns and labels:
[1] = system: mouse Th17 cell differentiation; assay: Th17 assay: mouse Th17 polarization (IL-17a producing cells, FACS); type: cell-based
Experimental: (§1) Percentage of DMSO treated IL-17a producing cells was set at 100. Naive mouse CD4 T cells (CD25^−, CD62L^+, and CD44^low-int) were sorted and cultured with CD3/CD28 stimulatory antibodies in the presence of TGFβ (0.1 ng/ml) and IL6 (20 ng/ml). Compounds were added on Day 1 and cells were analyzed on Day 4. For intracellular cytokine staining, cells were incubated for 5 h with phorbol ester (50 ng/ml; Sigma), ionomycin (500 ng/ml; Sigma) and GolgiStop (BD). When needed, surfaces were stained by incubation for 15 min on ice with PECy7-conjugated CD4 (BD Biosciences). The Cytofix/Cytoperm buffer set (BD) was used for intracellular staining. Cells were fixed and made permeable for 30 min on ice and were stained for 30 min on ice in permeabilization buffer with Alexa647-conjugated anti-IL17a (eBioscience) and PE-conjugated anti-IFNg (eBioscience). An LSR II (BD Biosciences) and FlowJo software (Tree Star) were used for flow cytometry. RORg IC50 value acquired from the S2 cell reporter assay is listed for comparison.
as §1, with “With respect to the methodological details pertaining to FIG. 1, naive” for “Percentage of DMSO treated IL-17a producing cells was set at 100. Naive mouse”, “(BD).” for “(BD). When needed, surfaces were stained by incubation for 15 min on ice with PECy7-conjugated CD4 (BD Biosciences).”, “anti-IFNγ” for “anti-IFNg”, “cytometry.” for “cytometry. RORg IC50 value acquired from the S2 cell reporter assay is listed for comparison.”

RORα = RORα overexpression dependent IL17a production in human CD4 T cells (FIG. 3); type: cell-based; conditions: FIG. 3, FACS, 0.5 μM; listed as NCGC00242624
Experimental: Briefly, CD3+ CD4+ CD45RA+ naive human T cells were isolated from peripheral blood derived from healthy donors. The naive T cells were cultured in XVIVO-20 (Lonza) medium for 7 days in the presence of IL2 and stimulatory CD3 and CD28 antibodies. Cells were infected with lentivirus encoding human RORα or RORγ and compound or DMSO was added on day 2. FACS plot analysis is shown after gating on GFP expressing (virus infected) cells.

SMILES: COc1cc(O)c(C(CC(=O)N2CC(C)CC(C)C2)c2ccc(C(=O)O)cc2)c(OC)c1 (stereo not drawn) [Compound 99, 4-(3-(3,5-Dimethylpiperidin-1-yl)-1-(2-hydroxy-4,6-dimethoxyphenyl)-3-oxopropyl)benzoic acid]
- mouse Th17 cell differentiation, as measured by IL17a production ([1]; FIG. 1, FACS, at the indicated concentrations, listed as NCGC00242624): suppresses mouse Th17 cell differentiation with similar activity to NCGC00238427; also recorded: suppress mouse Th17 cell differentiation
- IC50 ([1]; naive mouse CD4 T cells, TGFβ and IL6, compounds added Day 1, analyzed Day 4, read-out: Th 17 IC50): 1 to 10 µM
- RORα overexpression dependent IL17a production in human CD4 T cells (RORα): unaffected
